The values that follow come from patent US20140349862A1, “METHODS AND COMPOSITIONS FOR THERAPEUTIC DRUG MONITORING AND DOSING BY POINT OF CARE PHARMACOKINETIC PROFILING” (priority 2011, published 2014).

Read-outs that look alike come from different tables or passages of the source.

One data set in a line: clinical. The following applies: human, in vivo. From the text: To determine whether Abraxane PK has enough variability to benefit from therapeutic drug monitoring, we performed a PK analysis using all published literature on Abraxane PK. […] J Clin Oncol. 23:7785-93.). […] It is expected that Genexol-PM and Nanoxel would have the same PK variations. The wide variability of Abraxane was rather surprising. The role of therapeutic drug monitoring is to reduce this variability. Though PK profiles for Abraxane and Taxol were similar, there are differences. These differences, however, are small and could be masked by the large variation in PK of Abraxane/Taxol.
To determine whether medication used in assisted reproduction, i.e. FSH (follicle stimulating hormone), we performed a PK analysis using published literature on FSH PK. […] To compare it to 5-FU data, we used variability as SD/Mean.

In data set [1] the test system is patients with metastatic colorectal cancer. The note with it: cited from earlier work.
Where [2] appears, read: initial BSA dose, blood plasma concentration measured.

On to `O=c1[nH]cc(F)c(=O)[nH]1` [5-FU, 5-fluorouracil], for which the “AUC variability (range as % of the mean)” value in the data set “clinical” is 138%. In “clinical”, the “AUC variability as SD/Mean” value amounted to 34.42%. For the same compound, the AUC in “clinical” (mean) was 9050 ng·h/mL; in “clinical” (range), 3900 to 16400 ng·h/mL. Besides, the Median survival in data set [1] (BSA arm) is reported as 16 months; in data set [1] (personalized 5-FU dose management), 22 months. Moreover, the Response rate was 18.3% in data set [1] (BSA group (dosing by body surface area)) and 33.6% in data set [1] (dose-adjusted group (PK-guided dosing)). For the same compound, the “Patients found to be over-dosed (doses adjusted downward)” value in data set [1] (setting [2]) is reported as “Seventeen”. The “Patients found to be under-dosed (doses adjusted upwards)” value in data set [1] (setting [2]) was “Fifty eight”. In data set [1] (personalized 5-FU dose management versus BSA arm), the “Improvement of overall survival at two years” value is 48%. The “Grade III/IV 5-FU related toxicities” value in data set [1] (personalized dose adjustment versus BSA dosing) is given as “significantly lower”.

As usually defined, the AUC is the area under the concentration-time curve, a measure of exposure. A higher AUC goes with high exposure.
